Assay [1] addresses T1, phosphorylated EGFR (Tyr 1068) (Homo sapiens, UniProt P00533, L858R/T790M).
T1 construct: endogenous in cells; host or cells: H1975 (ATCC CRL-5908)
In words: Western blot of phosphorylated EGFR and total EGFR in H1975 cells. Format: cell-based. The following applies: 20~30 μM for 24 hours. The procedure: EGFR binding cognate ligands may lead to autophosphorylation of receptor tyrosine kinase and subsequent activation of signal transduction pathways of cell survival. Besides, aberrant tyrosine kinase activation increases proliferation and drug resistance of malignant cells. Please refer to FIG. 3. H1975 cells were treated with 0˜30 μM of SP101 for 24 hours. The total protein extracts were prepared for Western blot analyses using specific antibodies, including rabbit anti-p-EGFR (Tyr1068), rabbit anti-EGFR and mouse anti-actin. Representative immunoblotting data were shown from one of three separate experiments with similar findings. Actin was an internal control protein.

For the next assay, the system named is A549 cells. In words: Annexin V/PI apoptosis flow cytometry in A549 cells. The class given is cell-based, human. As to conditions: 30 μM for 24 hours. The procedure: At the end of treatment, apoptosis was measured by Annexin VPI staining using flow cytometry analysis. The population of Annexin V+/PI− cells represents cells undergoing early apoptosis (low right), whereas the fraction of Annexin V+/PI+ cell are those undergoing late apoptosis (upper right). The representative flow data were shown from one of three separate experiments with similar findings.
Please refer to FIG. 14. The expressions of phosphorylated EGFR and total EGFR proteins after treatment with SP101 (10˜40 μM for 24 hours) in the K-Ras mutation A549 cells were analyzed by Western blot. […] Please refer to FIG. 15. We further examined the apoptosis levels of SP101 in A549 cells by Annexin V and PI staining. The cells were trypsinized and then incubated with propidium iodide (5 μl) and Annexin V-FITC (5 μl) at room temperature for 5 min before flow cytometry.

A further assay deals with PLC26 cells. Description: Annexin V/PI apoptosis flow cytometry in PLC26 cells. The class given is cell-based, human. The following applies: 30 μM for 24 hours. As to the method: At the end of treatment, apoptosis was measured by Annexin V-PI staining using flow cytometry analysis. The population of Annexin V+/PI− cells represents cells undergoing early apoptosis (low right), whereas the fraction of Annexin V+/PI+ cell are those undergoing late apoptosis (upper right).
We have further investigated the effect of SP101 in PLC26 lung cancer cells separated from the pleural effusion of a clinical lung cancer patient. To compare the cell viability of SP101 and Gefitinib in PLC26 cells, the cells were treated with 0˜40 μM SP101 or Gefitinib for 24 hours, and analyzed by MTT assays. Please refer to FIG. 21. […] The apoptosis levels of SP101 in PLC26 cells were analyzed by Annexin V and PI staining. The PLC26 cells were trypsinized and then incubated with propidium iodide (5 μl) and Annexin V-FITC (5 μl) at room temperature for 5 mins before flow cytometry. Please refer to FIG. 22.

Another assay concerns A549-ON cells. Description: MTT cell viability assay in A549-ON cells. The class given is cell-based, human. The following applies: 10~40 μM for 24 hours, concentration-dependent. As to the method:
After treatment, the cells were re-cultured in fresh medium for 2 days. The cell viability was analyzed by MTT assays. The results were obtained from three independent experiments and the bar represents the mean±S.E.M. ***p<0.001 indicates significant difference between Gefitinib and SP101 treated samples.
A549 (ATCC number: CCL-185) was a non-small cell lung carcinoma cell line which expressed wild type EGFR and with K-Ras mutation (G12S). H1975 (ATCC number: CRL-5908) was a non-small cell lung carcinoma cell line which expressed EGFR L858R/T790M mutation. Oct4 and Nanog overexpression in A549-ON presented the properties of cancer stem-like cells, as well as epithelial-mesenchymal transdifferentiation. PLC26 was lung cancer cells that separated from pleural effusion of a clinical lung cancer patient (IRB number: 103-011-E). A549-ON cells were cultured in DMEM medium. A549 and H1975 cells were maintained in RPMI-1640 medium. […]
Please refer to FIG. 12. […] To compare the cell viability of SP101 and Gefitinib in K-Ras mutation-drug resistant A549 and A549-ON cell lines, the cells were treated with 0˜40 μM SP101 or Gefitinib for 24 hours, and analyzed by MTT assays. […] To determine the effect of SP101 and Gefitinib on the cell viability in cancer stem-like A549-ON cells, the cells were treated with 10˜40 μM SP101 or Gefitinib for 24 hours, and analyzed by MTT assays.

For `CCCCCCCCCCCCOC(=O)CCC(=O)N1CCN(CCCOc2cc3c(Nc4ccc(F)c(Cl)c4)ncnc3cc2OC)CC1` [SP101, dodecyl 4-(4-(3-(4-(3-chloro-4-fluorophenylamino)-7-methoxyquinazolin-6-yloxy)propyl)piperazin-1-yl)-4-oxobutanoate], in assay [1], the “phosphorylated EGFR (Tyr 1068) protein level” value is “significantly reduced” and the “total EGFR protein level” value is “did not inhibit”. Also, in the assay with A549 cells, the “levels of Annexin V+/PI− cells (early apoptosis) and Annexin V+/PI+ cells (late apoptosis)” value was “significantly increased”. Further, the “levels of Annexin V+/PI− cells (early apoptosis) and Annexin V+/PI+ cells (late apoptosis)” value with PLC26 cells is recorded as “significantly increased”. Further, the cell viability result in the assay on A549-ON cells is on record as “significantly reduced”.
